Patent US20120149662A1, “Heterocyclic Compounds as Janus Kinase Inhibitors” (BioCryst Pharmaceuticals, Inc., priority 2009, published 2012)

Biological target: JAK3 (JH1domain-catalytic) kinase and other members of the JAK family
Assay: Test A: IC50 determination against JAK family kinases (Fabian et al. 2005 / Karaman et al. 2008 assay)
Assay type: binding
Conditions: 11 point dose response curves in triplicate; JAK family member not given; read-out: Activity (IC50) for JAK Family of Enzymes
Protocol: The ability of a compound of the invention to bind to JAK3 may be determined using pharmacological models which are well known to the art, or using Test A described below.
Inhibition constants (IC50s) were determined against JAK3 (JH1domain-catalytic) kinase and other members of the JAK family. Assays were performed as described in Fabian et al. (2005) Nature Biotechnology, vol. 23, p. 329 and in Karaman et al. (2008) Nature Biotechnology, vol. 26, p. 127 Inhibition constants were determined using 11 point dose response curves which were performed in triplicate. Table 1 shown below lists compounds of the invention and their respective IC50 values.

Row | SMILES | IC50 [µM]
1 | N#CC[C@H](c1cccc(O)c1)n1cc(-c2cnnc3[nH]ccc23)cn1 [Compound 68f, (R)-3-(4-(7H-pyrrolo[2,3-c]pyridazin-4-yl)-1H-pyrazol-1-yl)-3-(3-hydroxyphenyl)propanenitrile] | < 5
2 | N#CCC(CC1CCCCC1)n1cc(-c2cnnc3[nH]ccc23)cn1 (stereo not drawn) [Compound 52e, 3-(4-(7H-pyrrolo[2,3-c]pyridazin-4-yl)-1H-pyrazol-1-yl)-4-cyclohexylbutane nitrile] | < 5
3 | CCOC(C)n1cc(-c2cnnc3[nH]ccc23)cn1 (stereo not drawn) [Compound 32c, 4-(1-(1-ethoxyethyl)-1H-pyrazol-4-yl)-7H-pyrrolo[2,3-c]pyridazine] | > 10
4 | NC(=O)c1c[nH]c2nnnc(O)c12 [Compound 70c, 4-hydroxy-7H-pyrrolo[2,3-d][1,2,3]triazine-5-carboxamide] | > 10
5 | c1cc2c(-c3cn[nH]c3)cnnc2[nH]1 [Compound 31m, 4-(1H-pyrazol-4-yl)-7H-pyrrolo[2,3-c]pyridazine] | > 10
6 | N#CCC1(n2cc(-c3cnnc4[nH]ccc34)cn2)CCCCC1 [Compound 56d, 2-(1-(4-(7H-pyrrolo[2,3-c]pyridazin-4-yl)-1H-pyrazol-1-yl)cyclohexyl)acetonitrile] | < 5
7 | N#CCC(C1CCCC1)n1cc(-c2cnnc3[nH]ccc23)cn1 (stereo not drawn) [Compound 34j, 3-(4-(7H-pyrrolo[2,3-c]pyridazin-4-yl)-1H-pyrazol-1-yl)-3-cyclopentylpropanenitrile] | < 5
8 | c1ccc(-c2cnnc3[nH]ccc23)cc1 [Compound 50a, 4-phenyl-7H-pyrrolo[2,3-c]pyridazine] | > 10
9 | N#CCC(CC1CCCC1)n1cc(-c2cnnc3[nH]ccc23)cn1 (stereo not drawn) [Compound 51e, 3-(4-(7H-pyrrolo[2,3-c]pyridazin-4-yl)-1H-pyrazol-1-yl)-4-cyclopentylbutane nitrile] | < 5
10 | N#CC[C@H](C1CCCCC1)n1cc(-c2cnnc3[nH]ccc23)cn1 [Compound 58d, (R)-3-(4-(7H-pyrrolo[2,3-c]pyridazin-4-yl)-1H-pyrazol-1-yl)-3-cyclohexylpropanenitrile] | < 5
11 | CC(C)(C)C(=O)OCn1ccc2c(-c3cn[nH]c3)cnnc21 [Compound 43a, (4-(1H-pyrazol-4-yl)-7H-pyrrolo[2,3-c]pyridazin-7-yl)methyl pivalate] | > 10
12 | N#CC[C@H](CC1CCCC1)n1cc(-c2cnnc3[nH]ccc23)cn1 [Compound 59d, (S)-3-(4-(7H-pyrrolo[2,3-c]pyridazin-4-yl)-1H-pyrazol-1-yl)-4-cyclopentylbutanenitrile] | < 5
13 | CCS(=O)(=O)N1CC(CC#N)(n2cc(-c3cnnc4[nH]ccc34)cn2)C1 [Compound 49c, 2-(3-(4-(7H-pyrrolo[2,3-c]pyridazin-4-yl)-1H-pyrazol-1-yl)-1-(ethylsulfonyl)azetidin-3-yl)acetonitrile] | < 5
14 | N#CC[C@]1(n2cc(-c3cnnc4[nH]ccc34)cn2)C[C@H](C#N)C1 [Compound 60g, (E)-3-(4-(7H-pyrrolo[2,3-c]pyridazin-4-yl)-1H-pyrazol-1-yl)-3-(cyanomethyl)cyclobutanecarbonitrile] | < 5
15 | N#CC[C@@H](C1CCCC1)n1cc(-c2cnnc3[nH]ccc23)cn1 [Compound 44d, (S)-3-(4-(7H-pyrrolo[2,3-c]pyridazin-4-yl)-1H-pyrazol-1-yl)-3-cyclopentyl propanenitrile] | < 5
16 | N#CC[C@H](C1CCCC1)n1cc(-c2cnnc3[nH]ccc23)cn1 [Compound 43g, (R)-3-(4-(7H-pyrrolo[2,3-c]pyridazin-4-yl)-1H-pyrazol-1-yl)-3-cyclopentylpropanenitrile] | < 5
17 | N#CCC1(n2cc(-c3cnnc4[nH]ccc34)cn2)COC1 [Compound 46c, 2-(3-(4-(7H-pyrrolo[2,3-c]pyridazin-4-yl)-1H-pyrazol-1-yl)oxetan-3-yl)acetonitrile] | < 10
18 | CC(C)(C)OC(=O)N1CC(CC#N)(n2cc(-c3cnnc4[nH]ccc34)cn2)C1 [Compound 45d, tert-butyl 3-(4-(7H-pyrrolo[2,3-c]pyridazin-4-yl)-1H-pyrazol-1-yl)-3-(cyanomethyl)azetidine-1-carboxylate] | > 10

Further lines, results first:

Row | IC50 [µM] | SMILES
19 | < 5 | N#CCC1(n2cc(-c3cnnc4[nH]ccc34)cn2)CCC1 [Compound 55d, 2-(1-(4-(7H-pyrrolo[2,3-c]pyridazin-4-yl)-1H-pyrazol-1-yl)cyclobutyl)acetonitrile]
20 | < 5 | N#CCC[C@H](C1CCCC1)n1cc(-c2cnnc3[nH]ccc23)cn1 [Compound 62b, (R)-4-(4-(7H-pyrrolo[2,3-c]pyridazin-4-yl)-1H-pyrazol-1-yl)-4-cyclopentyl butanenitrile]
21 | < 5 | N#CC[C@]1(n2cc(-c3cnnc4[nH]ccc34)cn2)C[C@@H](C#N)C1 [Compound 60f, (Z)-3-(4-(7H-pyrrolo[2,3-c]pyridazin-4-yl)-1H-pyrazol-1-yl)-3-(cyanomethyl)cyclobutanecarbonitrile]
22 | < 5 | N#CCC1(n2cc(-c3cnnc4[nH]ccc34)cn2)CCCC1 [Compound 48d, 2-(1-(4-(7H-pyrrolo[2,3-c]pyridazin-4-yl)-1H-pyrazol-1-yl)cyclopentyl)acetonitrile]
23 | < 5 | N#CCC(C1CC1)n1cc(-c2cnnc3[nH]ccc23)cn1 (stereo not drawn) [Compound 53d, 3-(4-(7H-pyrrolo[2,3-c]pyridazin-4-yl)-1H-pyrazol-1-yl)-3-cyclopropylpropane nitrile]
24 | < 5 | N#CC[C@H](c1ccccc1)n1cc(-c2cnnc3[nH]ccc23)cn1 [Compound 67d, (R)-3-(4-(7H-pyrrolo[2,3-c]pyridazin-4-yl)-1H-pyrazol-1-yl)-3-phenylpropane nitrile]
25 | < 5 | N#CCC(C1CCC1)n1cc(-c2cnnc3[nH]ccc23)cn1 (stereo not drawn) [Compound 54e, 3-(4-(7H-pyrrolo[2,3-c]pyridazin-4-yl)-1H-pyrazol-1-yl)-3-cyclobutylpropane nitrile]
26 | < 5 | N#CCC(C1CCCCC1)n1cc(-c2cnnc3[nH]ccc23)cn1 (stereo not drawn) [Compound 47d, 3-(4-(7H-pyrrolo[2,3-c]pyridazin-4-yl)-1H-pyrazol-1-yl)-3-cyclohexylpropane nitrile]
27 | < 5 | N#CCC(CC1CC1)n1cc(-c2cnnc3[nH]ccc23)cn1 (stereo not drawn) [Compound 57e, 3-(4-(7H-pyrrolo[2,3-c]pyridazin-4-yl)-1H-pyrazol-1-yl)-4-cyclopropylbutane nitrile]
